From patent US10167257B2, “Indole derivatives for use in medicine” (IOmet Pharma Ltd., priority 2014, dated 2019) come the findings set out here.

The structures appear in SMILES notation.

Assay [1] deals with T1, TDO (A172 cells) (Homo sapiens, UniProt P48775).
T1 construct: This assay utilised cancer cells which expressed either TDO or IDO; host or cells: A172 human glioblastoma cells
As to the kind of experiment: TDO cell-based assay (A172), kynurenine production. Conditions: A172 human glioblastoma cells, 500 μM L-Trp, 48 h, kynurenine by absorbance at 490 nm. The method in brief:
(§1)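 Kynurenine output was read at 490 nm after 5 min with 1% Ehrlich's reagent, using supernatants from 48 h, 37 °C cultures containing 500 μM L-Trp and test compound. TDO activity came from A172 cells. IDO activity came from SKOV-3 cells, whose expression was induced by adding 500 ng/ml IFNγ.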

Assay [2] concerns the target T2, IDO (SKOV-3 cells) (Homo sapiens, UniProt P14902).
T2 construct: This assay utilised cancer cells which expressed either TDO or IDO; host or cells: SKOV-3 ovary adenocarcinoma cells, IFNγ-induced
As to the kind of experiment: IDO cell-based assay (SKOV-3, IFNγ-induced), kynurenine production. Conditions: SKOV-3 ovary adenocarcinoma cells, IFNγ 500 ng/ml, 500 μM L-Trp, 48 h, kynurenine by absorbance at 490 nm. The method in brief: as §1

T1 sequence (P48775 whole entry): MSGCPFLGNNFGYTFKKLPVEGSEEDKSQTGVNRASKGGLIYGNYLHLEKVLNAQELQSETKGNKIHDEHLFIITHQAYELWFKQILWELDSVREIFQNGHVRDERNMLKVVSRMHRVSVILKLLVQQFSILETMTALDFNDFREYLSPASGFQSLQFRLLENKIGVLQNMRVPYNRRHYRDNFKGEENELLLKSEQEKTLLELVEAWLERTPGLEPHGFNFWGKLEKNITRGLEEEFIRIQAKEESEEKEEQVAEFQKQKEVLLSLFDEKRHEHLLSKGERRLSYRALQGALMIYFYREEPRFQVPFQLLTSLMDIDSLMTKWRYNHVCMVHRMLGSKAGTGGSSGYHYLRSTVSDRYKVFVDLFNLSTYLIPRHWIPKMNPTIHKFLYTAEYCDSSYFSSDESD
T2 sequence (P14902 whole entry): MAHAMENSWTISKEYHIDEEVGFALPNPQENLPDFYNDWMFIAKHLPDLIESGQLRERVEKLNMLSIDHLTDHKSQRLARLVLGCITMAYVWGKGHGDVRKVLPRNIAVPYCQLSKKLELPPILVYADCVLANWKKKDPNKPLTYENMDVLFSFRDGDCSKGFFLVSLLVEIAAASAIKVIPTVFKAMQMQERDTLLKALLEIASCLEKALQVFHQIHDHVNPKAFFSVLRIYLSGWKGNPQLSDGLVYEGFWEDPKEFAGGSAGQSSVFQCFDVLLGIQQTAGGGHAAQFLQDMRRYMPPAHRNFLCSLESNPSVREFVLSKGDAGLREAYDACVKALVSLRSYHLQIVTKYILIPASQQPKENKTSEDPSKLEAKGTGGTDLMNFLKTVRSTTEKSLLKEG

On to `C[C@@H](NC(=O)c1cc2cc(F)ccc2[nH]1)c1ccccc1` [Compound 43], for which the “TDO cellular assay (A172) pIC50” value in assay [1] is reported as “++ (++ = pIC50 5.00-<5.50)”. The “IDO cellular assay (SKOV3) pIC50” value in assay [2] is recorded as “+++ (+++ = pIC50 ≥5.50)”.
As to `Cc1ccc(C(C)NC(=O)c2cc3cc(F)ccc3[nH]2)o1` (centres unmarked) [Compound 24], the “TDO cellular assay (A172) pIC50” value in assay [1] is “+ (+ = pIC50 4.50-<5.00)”. In assay [2], the “IDO cellular assay (SKOV3) pIC50” value is “++ (++ = pIC50 5.00-<5.50)”.
Turning to `COc1ccc2cc(C(=O)NC(C)c3cnn(C)c3)[nH]c2c1` (centres unmarked) [Compound 166], the “TDO cellular assay (A172) pIC50” value in assay [1] was “− (− = pIC50 <4.50)”. In assay [2], the “IDO cellular assay (SKOV3) pIC50” value is given as “+ (+ = pIC50 4.50-<5.00)”.
Take `CC(C)C(C)NC(=O)c1cc2cc(Cl)ccc2[nH]1` (centres unmarked) [Compound 71]: in assay [1], the “TDO cellular assay (A172) pIC50” value was “+ (+ = pIC50 4.50-<5.00)”. For the same molecule, in assay [2], the “IDO cellular assay (SKOV3) pIC50” value is recorded as “+++ (+++ = pIC50 ≥5.50)”.
For `C[C@@H](c1ccccc1)N(C)C(=O)c1cc2cc(F)ccc2[nH]1` [Compound 59], in that order: “− (− = pIC50 <4.50)” and “+ (+ = pIC50 4.50-<5.00)”.
For `CC(NC(=O)c1cc2c(F)c(Cl)ccc2[nH]1)c1cnn(C)c1` (centres unmarked) [Compound 193], in that order: “− (− = pIC50 <4.50)” and “+++ (+++ = pIC50 ≥5.50)”.
For `O=C(NC1(c2ccccc2)CC1)c1cc2cc(O)ccc2[nH]1` [Compound 187], in that order: “− (− = pIC50 <4.50)” and “+ (+ = pIC50 4.50-<5.00)”.
`CCOc1ccc2[nH]c(C(=O)N[C@H](C)c3ccccc3)cc2c1` [Compound 270]: the “TDO cellular assay (A172) pIC50” value in assay [1] was “− (− = pIC50 <4.50)”. For the same molecule, the “IDO cellular assay (SKOV3) pIC50” value in assay [2] is given as “+++ (+++ = pIC50 ≥5.50)”.
For `C[C@H](NC(=O)c1cc2c(F)cccc2[nH]1)c1ccccc1` [Compound 56], in that order: “+ (+ = pIC50 4.50-<5.00)” and “+ (+ = pIC50 4.50-<5.00)”.
Consider `O=C(NCc1ccc(F)c(Cl)c1)c1cc2ccccc2[nH]1` [Compound 32], for which the “TDO cellular assay (A172) pIC50” value in assay [1] is given as “− (− = pIC50 <4.50)”. In addition, the “IDO cellular assay (SKOV3) pIC50” value in assay [2] is reported as “++ (++ = pIC50 5.00-<5.50)”.
Taken in the same sequence, the figures for `CC(Cc1ccccc1)NC(=O)c1cc2cc(Cl)ccc2[nH]1` (centres unmarked) [Compound 86] were “+++ (+++ = pIC50 ≥5.50)” and “+++ (+++ = pIC50 ≥5.50)”.
For `CC(NC(=O)c1cc2ccccc2[nH]1)c1cccc(Cl)c1` (centres unmarked) [Compound 14], in that order: “− (− = pIC50 <4.50)” and “++ (++ = pIC50 5.00-<5.50)”.
As to `CC(NC(=O)c1cc2cc(F)ccc2[nH]1)c1ccccn1` (centres unmarked) [Compound 42], in assay [1], the “TDO cellular assay (A172) pIC50” value was “− (− = pIC50 <4.50)”. Besides, the “IDO cellular assay (SKOV3) pIC50” value in assay [2] is on record as “++ (++ = pIC50 5.00-<5.50)”.
For `Cn1cc(C2(NC(=O)c3cc4cc(Cl)cnc4[nH]3)CC2)cn1` [Compound 177], in that order: “− (− = pIC50 <4.50)” and “++ (++ = pIC50 5.00-<5.50)”.
For `CCc1ccc2[nH]c(C(=O)NC3(c4cnn(C)c4)CC3)cc2c1` [Compound 264], in that order: “− (− = pIC50 <4.50)” and “+++ (+++ = pIC50 ≥5.50)”.
Regarding `Cn1cc(C2(NC(=O)c3cc4ccc(C(F)F)cc4[nH]3)CC2)cn1` [Compound 206], the “TDO cellular assay (A172) pIC50” value in assay [1] is reported as “− (− = pIC50 <4.50)”. Also, the “IDO cellular assay (SKOV3) pIC50” value in assay [2] is “+ (+ = pIC50 4.50-<5.00)”.
For `Cc1ccccc1C1CCN(CCNC(=O)c2cc3cc(Cl)ccc3[nH]2)C1` (centres unmarked) [Compound 118], in that order: “+ (+ = pIC50 4.50-<5.00)” and “++ (++ = pIC50 5.00-<5.50)”.
Taken in the same sequence, the figures for `O=C(NC1(c2ccccc2)COC1)c1cc2cc(Cl)ccc2[nH]1` [Compound 142] were “+ (+ = pIC50 4.50-<5.00)” and “+++ (+++ = pIC50 ≥5.50)”.
Taken in the same sequence, the figures for `C[C@@H](NC(=O)c1cc2cc(O)ccc2[nH]1)c1ccccc1` [Compound 181] were “− (− = pIC50 <4.50)” and “+ (+ = pIC50 4.50-<5.00)”.
`Cn1cc(C2(NC(=O)c3cc4cc(Cl)ccc4[nH]3)CCCCC2)cn1` [Compound 251]: in assay [1], the “TDO cellular assay (A172) pIC50” value is “− (− = pIC50 <4.50)”. Moreover, the “IDO cellular assay (SKOV3) pIC50” value in assay [2] is “+++ (+++ = pIC50 ≥5.50)”.
Take `CC(NC(=O)c1cc2cc(Cl)ccc2[nH]1)C1CC1` (centres unmarked) [Compound 94]: the “TDO cellular assay (A172) pIC50” value in assay [1] is on record as “+ (+ = pIC50 4.50-<5.00)”. In addition, in assay [2], the “IDO cellular assay (SKOV3) pIC50” value is recorded as “++ (++ = pIC50 5.00-<5.50)”.
`O=C(NC1(c2ncccn2)CC1)c1cc2cc(Cl)ccc2[nH]1` [Compound 179]: the “TDO cellular assay (A172) pIC50” value in assay [1] is reported as “− (− = pIC50 <4.50)”. Moreover, the “IDO cellular assay (SKOV3) pIC50” value in assay [2] was “++ (++ = pIC50 5.00-<5.50)”.
Take `O=C(NC(c1ccccc1)c1ccccc1)c1cc2cc(Cl)ccc2[nH]1` [Compound 237]: in assay [1], the “TDO cellular assay (A172) pIC50” value is reported as “− (− = pIC50 <4.50)”. Moreover, the “IDO cellular assay (SKOV3) pIC50” value in assay [2] is “++ (++ = pIC50 5.00-<5.50)”.
Taken in the same sequence, the figures for `CC(C)Oc1ccc2[nH]c(C(=O)NC(C)c3cnn(C)c3)cc2c1` (centres unmarked) [Compound 262] were “− (− = pIC50 <4.50)” and “+ (+ = pIC50 4.50-<5.00)”.
Take `Cc1ccc(C(C)NC(=O)c2cc3ccccc3[nH]2)o1` (centres unmarked) [Compound 11]: the “TDO cellular assay (A172) pIC50” value in assay [1] was “++ (++ = pIC50 5.00-<5.50)”. Moreover, in assay [2], the “IDO cellular assay (SKOV3) pIC50” value is “++ (++ = pIC50 5.00-<5.50)”.
For `O=C(NC1(c2ccccc2)COC1)c1cc2cc(C(F)(F)F)ccc2[nH]1` [Compound 170], the “TDO cellular assay (A172) pIC50” value in assay [1] is recorded as “+ (+ = pIC50 4.50-<5.00)”. Also, the “IDO cellular assay (SKOV3) pIC50” value in assay [2] was “+++ (+++ = pIC50 ≥5.50)”.
Take `Cc1cccc2[nH]c(C(=O)NC(C)c3ccccc3)cc12` (centres unmarked) [Compound 77]: the “TDO cellular assay (A172) pIC50” value in assay [1] is reported as “+ (+ = pIC50 4.50-<5.00)”. For the same molecule, the “IDO cellular assay (SKOV3) pIC50” value in assay [2] is recorded as “+++ (+++ = pIC50 ≥5.50)”.
As to `CC(NC(=O)c1cc2cc(Cl)ccc2[nH]1)c1ccn(C)n1` (centres unmarked) [Compound 201], in assay [1], the “TDO cellular assay (A172) pIC50” value is “− (− = pIC50 <4.50)”. Also, in assay [2], the “IDO cellular assay (SKOV3) pIC50” value is given as “+ (+ = pIC50 4.50-<5.00)”.
For `Cn1cc(C2(NC(=O)c3cc4cc(Cl)ccc4[nH]3)CCOCC2)cn1` [Compound 266], in that order: “− (− = pIC50 <4.50)” and “+++ (+++ = pIC50 ≥5.50)”.
For `CC(NC(=O)c1cc2cc(Cl)ccc2[nH]1)C1CCN(S(C)(=O)=O)CC1` (centres unmarked) [Compound 111], in that order: “− (− = pIC50 <4.50)” and “++ (++ = pIC50 5.00-<5.50)”.
For `CC(C)Oc1ccc2[nH]c(C(=O)NC3(c4cnn(C)c4)CC3)cc2c1` [Compound 265], in that order: “− (− = pIC50 <4.50)” and “+++ (+++ = pIC50 ≥5.50)”.
On to `C[C@@H](NC(=O)c1cc2cc(F)ccc2n1C)c1ccccc1` [Compound 46], for which, in assay [1], the “TDO cellular assay (A172) pIC50” value was “− (− = pIC50 <4.50)”. Besides, the “IDO cellular assay (SKOV3) pIC50” value in assay [2] is listed as “++ (++ = pIC50 5.00-<5.50)”.
Taken in the same sequence, the figures for `COCCn1cc(C(C)NC(=O)c2cc3cc(C#N)ccc3[nH]2)cn1` (centres unmarked) [Compound 197] were “− (− = pIC50 <4.50)” and “+ (+ = pIC50 4.50-<5.00)”.
`CC(NC(=O)c1cc2cc(Cl)ccc2[nH]1)c1ccc(S(C)(=O)=O)cc1` (centres unmarked) [Compound 84]: the “TDO cellular assay (A172) pIC50” value in assay [1] is “++ (++ = pIC50 5.00-<5.50)”. In addition, the “IDO cellular assay (SKOV3) pIC50” value in assay [2] is given as “+++ (+++ = pIC50 ≥5.50)”.
As to `CC(NC(=O)c1cc2cc(Cl)ccc2[nH]1)C1CCCCC1` (centres unmarked) [Compound 69], the “TDO cellular assay (A172) pIC50” value in assay [1] is “++ (++ = pIC50 5.00-<5.50)”. The “IDO cellular assay (SKOV3) pIC50” value in assay [2] is listed as “+++ (+++ = pIC50 ≥5.50)”.
Regarding `CC(=O)N1CCC(C(C)NC(=O)c2cc3cc(Cl)ccc3[nH]2)CC1` (centres unmarked) [Compound 105], the “TDO cellular assay (A172) pIC50” value in assay [1] is recorded as “− (− = pIC50 <4.50)”. Further, the “IDO cellular assay (SKOV3) pIC50” value in assay [2] is recorded as “+++ (+++ = pIC50 ≥5.50)”.
Taken in the same sequence, the figures for `CCc1ccc2[nH]c(C(=O)N[C@H](C)c3ccccc3)cc2c1` [Compound 241] were “− (− = pIC50 <4.50)” and “+++ (+++ = pIC50 ≥5.50)”.
Turning to `O=C(NC1(c2ccccc2)CC1)c1cc2cc(Cl)cc(F)c2[nH]1` [Compound 188], the “TDO cellular assay (A172) pIC50” value in assay [1] is “+ (+ = pIC50 4.50-<5.00)”. In assay [2], the “IDO cellular assay (SKOV3) pIC50” value was “+++ (+++ = pIC50 ≥5.50)”.
For `O=C(NC1(c2ccncc2)CC1)c1cc2cc(Cl)ccc2[nH]1` [Compound 223], in that order: “− (− = pIC50 <4.50)” and “+++ (+++ = pIC50 ≥5.50)”.
For the molecule `Cc1nccc2c(NC(=O)c3cc4cc(F)ccc4[nH]3)cccc12` [Compound 120], the “TDO cellular assay (A172) pIC50” value in assay [1] was “− (− = pIC50 <4.50)”. For the same molecule, the “IDO cellular assay (SKOV3) pIC50” value in assay [2] is on record as “+++ (+++ = pIC50 ≥5.50)”.
Taken in the same sequence, the figures for `C[C@@H](NC(=O)c1cc2cc(Cl)cc(F)c2[nH]1)c1ccccc1` [Compound 174] were “++ (++ = pIC50 5.00-<5.50)” and “+++ (+++ = pIC50 ≥5.50)”.
For `O=C(NC1(c2cccnc2)CC1)c1cc2cc(Cl)ccc2[nH]1` [Compound 153], in that order: “− (− = pIC50 <4.50)” and “+++ (+++ = pIC50 ≥5.50)”.
Taken in the same sequence, the figures for `CCN(Cc1noc(CC(C)C)n1)C(=O)c1cc2cc(Cl)ccc2[nH]1` [Compound 117] were “+ (+ = pIC50 4.50-<5.00)” and “++ (++ = pIC50 5.00-<5.50)”.
